Measurements from ChEMBL document CHEMBL3046198, “Insecticidal and antifungal activities of aminorhodanine derivatives” (1998).
Values after ≈ are worked out from the molar mass of the structure shown.

What was measured:
Type in all cases: functional
Fusarium oxysporum = experiment: Antifungal activity against Fusarium oxysporum OPS 118 after 7 days by agar dilution method; conditions: OPS 118, 168 h
Candida albicans = experiment: Antifungal activity against Candida albicans ATCC 10231 after 7 days by agar dilution method; conditions: ATCC 10231, 168 h
[1] = tested on: Trichophyton mentagrophytes; experiment: Antifungal activity against Trichophyton mentagrophytes IFO 32412 after 7 days by agar dilution method; conditions: IFO 32412, 168 h
Penicillium expansum = experiment: Antifungal activity against Penicillium expansum IFO 8800 after 7 days by agar dilution method; conditions: IFO 8800, 168 h
Aspergillus niger = experiment: Antifungal activity against Aspergillus niger ATCC 16404 after 7 days by agar dilution method; conditions: ATCC 16404, 168 h
Wickerhamomyces anomalus = experiment: Antifungal activity against Wickerhamomyces anomalus OPS 308 after 7 days by agar dilution method; conditions: Hansenula anomala, OPS 308, 168 h
Culex pipiens pallens [2] = experiment: Insecticidal activity against Culex pipiens pallens (mosquito) assessed as mortality at 5 ug/insect after 24 hr
Musca domestica [3] = experiment: Insecticidal activity against Musca domestica (house fly) assessed as mortality at 5 ug/insect after 24 hr
Musca domestica [4] = experiment: Insecticidal activity against Musca domestica (house fly) assessed as mortality at 1 ug/insect after 24 hr
Culex pipiens pallens [5] = experiment: Insecticidal activity against Culex pipiens pallens (mosquito) assessed as mortality at 0.25 ug/insect after 24 hr
Culex pipiens pallens [6] = experiment: Insecticidal activity against Culex pipiens pallens (mosquito) assessed as mortality at 4 ug/insect after 24 hr
Culex pipiens pallens [7] = experiment: Insecticidal activity against Culex pipiens pallens (mosquito) assessed as mortality at 0.10 ug/insect after 24 hr
Culex pipiens pallens [8] = experiment: Insecticidal activity against Culex pipiens pallens (mosquito) assessed as mortality at 0.025 ug/insect after 24 hr
Musca domestica [9] = experiment: Insecticidal activity against Musca domestica (house fly) assessed as mortality at 2 ug/insect after 24 hr
Culex pipiens pallens [10] = experiment: Insecticidal activity against Culex pipiens pallens (mosquito) assessed as mortality at 0.5 ug/insect after 24 hr
Culex pipiens pallens [11] = experiment: Insecticidal activity against Culex pipiens pallens (mosquito) assessed as mortality at 2 ug/insect after 24 hr
Musca domestica [12] = experiment: Insecticidal activity against Musca domestica (house fly) assessed as mortality at 0.05 ug/insect after 24 hr
Culex pipiens pallens [13] = experiment: Insecticidal activity against Culex pipiens pallens (mosquito) assessed as mortality at 1 ug/insect after 24 hr
Musca domestica [14] = experiment: Insecticidal activity against Musca domestica (house fly) assessed as mortality at 0.10 ug/insect after 24 hr
Culex pipiens pallens [15] = experiment: Insecticidal activity against Culex pipiens pallens (mosquito) assessed as mortality at 0.05 ug/insect after 24 hr
Musca domestica [16] = experiment: Insecticidal activity against Musca domestica (house fly) assessed as mortality at 0.25 ug/insect after 24 hr
Musca domestica [17] = experiment: Insecticidal activity against Musca domestica (house fly) assessed as mortality at 0.5 ug/insect after 24 hr
Musca domestica [18] = experiment: Insecticidal activity against Musca domestica (house fly) assessed as mortality at 4 ug/insect after 24 hr
Musca domestica [19] = experiment: Insecticidal activity against Musca domestica (house fly) assessed as mortality at 0.250 ug/insect after 24 hr
Musca domestica [20] = experiment: Insecticidal activity against Musca domestica (house fly) assessed as mortality at 0.125 ug/insect after 24 hr
Musca domestica [21] = experiment: Insecticidal activity against Musca domestica (house fly) assessed as mortality at 0.031 ug/insect after 24 hr
Musca domestica [22] = experiment: Insecticidal activity against Musca domestica (house fly) assessed as mortality at 0.015 ug/insect after 24 hr
Culex pipiens pallens [23] = experiment: Insecticidal activity against Culex pipiens pallens (mosquito) assessed as mortality at 0.002 ug/insect after 24 hr
Culex pipiens pallens [24] = experiment: Insecticidal activity against Culex pipiens pallens (mosquito) assessed as mortality at 0.0005 ug/insect after 24 hr
Musca domestica [25] = experiment: Insecticidal activity against Musca domestica (house fly) assessed as mortality at 0.062 ug/insect after 24 hr
Culex pipiens pallens [26] = experiment: Insecticidal activity against Culex pipiens pallens (mosquito) assessed as mortality at 0.004 ug/insect after 24 hr
Culex pipiens pallens [27] = experiment: Insecticidal activity against Culex pipiens pallens (mosquito) assessed as mortality at 0.001 ug/insect after 24 hr
Culex pipiens pallens [28] = experiment: Insecticidal activity against Culex pipiens pallens (mosquito) assessed as mortality at 0.008 ug/insect after 24 hr
Culex pipiens pallens [29] = experiment: Insecticidal activity against Culex pipiens pallens (mosquito) assessed as mortality at 0.00025 ug/insect after 24 hr

Row | SMILES | MIC (Fusarium oxysporum) | MIC (Candida albicans) | MIC [1] | MIC (Penicillium expansum) | MIC (Aspergillus niger) | MIC (Wickerhamomyces anomalus) | Activity (Culex pipiens pallens [2]) | Activity (Musca domestica [3]) | also measured
1 | CC(=O)NN1C(=O)CSC1=S [N-ACETYLAMINORHODANINE] | > 1000 µg/mL | > 1000 µg/mL | > 1000 µg/mL | > 1000 µg/mL | > 1000 µg/mL | > 1000 µg/mL | 0% | 0% | –
2 | NN1C(=O)CSC1=S [AMINORHODANINE] | 400 µg/mL (≈ 2.7 mM) | 12.5 µg/mL (≈ 0.0843 mM) | 12.5 µg/mL (≈ 0.0843 mM) | 100 µg/mL (≈ 0.675 mM) | 6.25 µg/mL (≈ 0.0422 mM) | 25 µg/mL (≈ 0.169 mM) | 100% | 100% | Activity (Musca domestica [4]): 60%; Activity (Culex pipiens pallens [5]): 53.3%; Activity (Culex pipiens pallens [6]): 100%; Activity (Culex pipiens pallens [7]): 33.3%; Activity (Culex pipiens pallens [8]): 3.3%; Activity (Musca domestica [9]): 63.3%; Activity (Culex pipiens pallens [10]): 60%; Activity (Culex pipiens pallens [11]): 100%; Activity (Musca domestica [12]): 0%; Activity (Culex pipiens pallens [13]): 86.7%; Activity (Musca domestica [14]): 10%; Activity (Culex pipiens pallens [15]): 16.7%; Activity (Musca domestica [16]): 17.9%; Activity (Musca domestica [17]): 36.7%; Activity (Musca domestica [18]): 86.7%
3 | O=C(NN1C(=O)CSC1=S)c1ccccc1 [N-BENZOYLAMINORHODANINE] | > 1000 µg/mL | > 1000 µg/mL | > 1000 µg/mL | > 1000 µg/mL | > 1000 µg/mL | > 1000 µg/mL | 0% | 0% | –
4 | COP(=S)(OC)Oc1ccc([N+](=O)[O-])c(C)c1 [FENITROTHION] | – | – | – | – | – | – | – | – | Activity (Musca domestica [19]): 100%; Activity (Musca domestica [20]): 93.3%; Activity (Musca domestica [21]): 3.3%; Activity (Musca domestica [22]): 0%; Activity (Culex pipiens pallens [23]): 50%; Activity (Culex pipiens pallens [24]): 3.3%; Activity (Musca domestica [25]): 46.7%; Activity (Culex pipiens pallens [26]): 86.7%; Activity (Culex pipiens pallens [27]): 16.7%; Activity (Culex pipiens pallens [28]): 100%; Activity (Culex pipiens pallens [29]): 0%
5 | O=C1CSC(=S)N1 [RHODANINE] | 800 µg/mL (≈ 6.01 mM) | 800 µg/mL (≈ 6.01 mM) | 200 µg/mL (≈ 1.5 mM) | > 1000 µg/mL | 800 µg/mL (≈ 6.01 mM) | 400 µg/mL (≈ 3 mM) | 0% | 0% | –
